Experimental data published in US20070128217A1 (priority 2003, published 2007).

Tests used:
[1] = test system: antibodies in sera from SARS patients (sera 1a, 1b, 2, 6, 37, 62, London, SARS-yellow, SARS-green); type: binding, human; set-up: Binding of serum 6 to linear peptides of protein X1 of SARS-CoV Urbani / Binding of serum 37 to linear peptides of protein X1 of SARS-CoV Urbani / Binding of serum 6 to looped/cyclic peptide (PEPSCAN-ELISA) / Binding of serum 37 to looped/cyclic peptide (PEPSCAN-ELISA) / Binding of serum 37 to looped/cyclic peptides of protein X1 of SARS-CoV Urbani / Binding of serum 6 to linear peptides of protein X2 / Binding of serum 37 to linear peptides of protein X2 / Binding of serum 37 to looped/cyclic peptides of protein X2 of SARS-CoV Urbani / Binding of serum 6 to linear peptides of protein M of SARS-CoV Urbani / Binding of serum 37 to linear peptides of protein M of SARS-CoV Urbani / Binding of serum 6 to looped/cyclic peptides of protein M of SARS-CoV Urbani / Binding of serum 37 to looped/cyclic peptides of protein M of SARS-CoV Urbani / Binding of serum 6 to linear peptides of protein X3 of SARS-CoV Urbani / Binding of serum 37 to linear peptides of protein X3 of SARS-CoV Urbani / Binding of serum 37 to looped/cyclic peptides of protein X3 of SARS-CoV Urbani / Binding of serum 6 to linear peptides of protein X4 of SARS-CoV Urbani / Binding of serum 37 to linear peptides of protein X4 of SARS-CoV Urbani / Binding of serum 37 to looped/cyclic peptides of protein X4 of SARS-CoV Urbani / Binding of serum 6 to linear peptides of protein X5 of SARS-CoV Urbani / Binding of serum 37 to linear peptides of protein X5 of SARS-CoV Urbani / Binding of serum 37 to looped/cyclic peptides of protein X5 of SARS-CoV Urbani / Binding of serum 6 to linear peptides of protein N of SARS-CoV Urbani / Binding of serum 37 to linear peptides of protein N of SARS-CoV Urbani / Binding of serum 6 to linear peptide (PEPSCAN-ELISA) / Binding of serum 1a to looped/cyclic peptides of protein N of SARS-CoV Urbani / Binding of serum 1b to looped/cyclic peptides of protein N of SARS-CoV Urbani / Binding of serum 2 to looped/cyclic peptides of protein N of SARS-CoV Urbani / Binding of serum 6 to looped/cyclic peptides of protein N of SARS-CoV Urbani / Binding of serum 37 to looped/cyclic peptides of protein N of SARS-CoV Urbani / Binding of serum 62 to looped/cyclic peptides of protein N of SARS-CoV Urbani / Binding of serum London to looped/cyclic peptides of protein N of SARS-CoV Urbani / Binding of serum SARS-green to looped/cyclic peptides of protein N of SARS-CoV Urbani: unit not given here
[2] = test system: control sera (pooled serum of ten healthy LUMC hospital workers; commercial negative donor pooled serum from the Dutch bloodbank); type: binding, human; set-up: Binding of Control serum LUMC to linear peptides / Binding of Control serum Blood-bank to linear peptides / Binding of Control serum LUMC to looped peptides / Binding of Control Serum Blood-Bank to Looped peptides / Binding of Control serum LUMC to linear peptides of the protein M of SARS-CoV Urbani / Binding of Control serum Blood-bank to linear peptides of the protein M of SARS-CoV Urbani / Binding of Control serum LUMC to looped peptides of the protein M of SARS-CoV Urbani / Binding of Control Serum Blood-Bank to Looped peptides of the protein M of SARS-CoV Urbani: unit not given here
[3] = test system: rabbit serum obtained by immunizing a rabbit with the SARS-CoV strain Frankfurt 1; type: binding; set-up: Binding of a rabbit serum to linear peptides / Binding of a rabbit serum to looped peptides / Rabbit serum linear peptides / Rabbit serum looped peptides / Binding of a rabbit serum to linear peptides of protein N of SARS-CoV Urbani (Rabbit serum linear peptides) / Binding of a rabbit serum to looped/cyclic peptides of protein N of SARS-CoV Urbani (Rabbit serum looped peptides): unit not given here

## LLQFAYSNRNRFLYI
[1]
  Binding of serum 1a to linear peptides of protein M of SARS-CoV Urbani: 0.7
  Binding of serum 1a to looped/cyclic peptides of protein M of SARS-CoV Urbani: 0.7
  Binding of serum 1b to linear peptides of protein M of SARS-CoV Urbani: 0.6
  Binding of serum 1b to looped/cyclic peptides of protein M of SARS-CoV Urbani: 0.5
  Binding of serum 2 to linear peptides of protein M of SARS-CoV Urbani: 0.4
  Binding of serum 2 to looped/cyclic peptides of protein M of SARS-CoV Urbani: 0.6
  Binding of serum 6 to linear peptides of protein M of SARS-CoV Urbani: 0.3
  Binding of serum 6 to looped/cyclic peptides of protein M of SARS-CoV Urbani: 0.6
  Binding of serum 37 to linear peptides of protein M of SARS-CoV Urbani: 0.3
  Binding of serum 37 to looped/cyclic peptides of protein M of SARS-CoV Urbani: 0.5
  Binding of serum 62 to linear peptides of protein M of SARS-CoV Urbani: 0.3
  Binding of serum 62 to looped/cyclic peptides of protein M of SARS-CoV Urbani: 0.4
  Binding of serum London to linear peptides of protein M of SARS-CoV Urbani: 0.3
  Binding of serum London to looped/cyclic peptides of protein M of SARS-CoV Urbani: 0.2
  Binding of serum SARS-green to linear peptides of protein M of SARS-CoV Urbani: 0.5
  Binding of serum SARS-green to looped/cyclic peptides of protein M of SARS-CoV Urbani: 0.1
  Binding of serum SARS-yellow to linear peptides of protein M of SARS-CoV Urbani: 0.2
  Binding of serum SARS-yellow to looped/cyclic peptides of protein M of SARS-CoV Urbani: 0.5
[2]
  Binding of Control Serum Blood-Bank to Looped peptides of the protein M of SARS-CoV Urbani: 0.5
  Binding of Control serum Blood-bank to linear peptides of the protein M of SARS-CoV Urbani: 0.6
  Binding of Control serum LUMC to linear peptides of the protein M of SARS-CoV Urbani: 0.6
  Binding of Control serum LUMC to looped peptides of the protein M of SARS-CoV Urbani: 0.5
[3]
  Rabbit serum linear peptides: 0.2
  Rabbit serum looped peptides: 0.4

## LLWPVTLACFVLAAV
[1]
  Binding of serum 1a to linear peptides of protein M of SARS-CoV Urbani: 0.7
  Binding of serum 1a to looped/cyclic peptides of protein M of SARS-CoV Urbani: 0.9
  Binding of serum 1b to linear peptides of protein M of SARS-CoV Urbani: 0.5
  Binding of serum 1b to looped/cyclic peptides of protein M of SARS-CoV Urbani: 0.5
  Binding of serum 2 to linear peptides of protein M of SARS-CoV Urbani: 0.6
  Binding of serum 2 to looped/cyclic peptides of protein M of SARS-CoV Urbani: 0.9
  Binding of serum 6 to linear peptides of protein M of SARS-CoV Urbani: 0.4
  Binding of serum 6 to looped/cyclic peptides of protein M of SARS-CoV Urbani: 0.6
  Binding of serum 37 to linear peptides of protein M of SARS-CoV Urbani: 0.5
  Binding of serum 37 to looped/cyclic peptides of protein M of SARS-CoV Urbani: 0.8
  Binding of serum 62 to linear peptides of protein M of SARS-CoV Urbani: 0.5
  Binding of serum 62 to looped/cyclic peptides of protein M of SARS-CoV Urbani: 0.8
  Binding of serum London to linear peptides of protein M of SARS-CoV Urbani: 0.3
  Binding of serum London to looped/cyclic peptides of protein M of SARS-CoV Urbani: 0.3
  Binding of serum SARS-green to linear peptides of protein M of SARS-CoV Urbani: 0.5
  Binding of serum SARS-green to looped/cyclic peptides of protein M of SARS-CoV Urbani: 0.4
  Binding of serum SARS-yellow to linear peptides of protein M of SARS-CoV Urbani: 0.1
  Binding of serum SARS-yellow to looped/cyclic peptides of protein M of SARS-CoV Urbani: 0.9
[2]
  Binding of Control Serum Blood-Bank to Looped peptides of the protein M of SARS-CoV Urbani: 0.6
  Binding of Control serum Blood-bank to linear peptides of the protein M of SARS-CoV Urbani: 0.7
  Binding of Control serum LUMC to linear peptides of the protein M of SARS-CoV Urbani: 0.7
  Binding of Control serum LUMC to looped peptides of the protein M of SARS-CoV Urbani: 0.7
[3]
  Rabbit serum linear peptides: 0.2
  Rabbit serum looped peptides: 0.3

## LLYDANYFVCWHTHN
[1]
  Binding of serum 1a to linear peptides of protein X1 of SARS-CoV Urbani: 0.9
  Binding of serum 1a to looped/cyclic peptide (PEPSCAN-ELISA): 0.6
  Binding of serum 1b to linear peptides of protein X1 of SARS-CoV Urbani: 0.7
  Binding of serum 1b to looped/cyclic peptide (PEPSCAN-ELISA): 0.5
  Binding of serum 2 to linear peptides of protein X1 of SARS-CoV Urbani: 0.6
  Binding of serum 2 to looped/cyclic peptide (PEPSCAN-ELISA): 0.4
  Binding of serum 6 to linear peptides of protein X1 of SARS-CoV Urbani: 0.7
  Binding of serum 6 to looped/cyclic peptide (PEPSCAN-ELISA): 0.4
  Binding of serum 37 to linear peptides of protein X1 of SARS-CoV Urbani: 0.7
  Binding of serum 37 to looped/cyclic peptide (PEPSCAN-ELISA): 0.6
  Binding of serum 62 to linear peptides of protein X1 of SARS-CoV Urbani: 0.8
  Binding of serum 62 to looped/cyclic peptide (PEPSCAN-ELISA): 0.6
  Binding of serum London to linear peptides of protein X1 of SARS-CoV Urbani: 0.4
  Binding of serum London to looped/cyclic peptide (PEPSCAN-ELISA): 0.2
  Binding of serum SARS-green to linear peptides of protein X1 of SARS-CoV Urbani: 0.4
  Binding of serum SARS-green to looped/cyclic peptide (PEPSCAN-ELISA): 0.3
  Binding of serum SARS-yellow to linear peptides of protein X1 of SARS-CoV Urbani: 0.5
  Binding of serum SARS-yellow to looped/cyclic peptide (PEPSCAN-ELISA): 0.4
[2]
  Binding of Control Serum Blood-Bank to Looped peptides: 0.6
  Binding of Control serum Blood-bank to linear peptides: 0.8
  Binding of Control serum LUMC to linear peptides: 0.7
  Binding of Control serum LUMC to looped peptides: 0.5
[3]
  Binding of a rabbit serum to linear peptides: 0.1
  Binding of a rabbit serum to looped peptides: 0.5

## LMESELVIGAVIIRG
[1]
  Binding of serum 1a to linear peptides of protein M of SARS-CoV Urbani: 0.7
  Binding of serum 1a to looped/cyclic peptides of protein M of SARS-CoV Urbani: 0.6
  Binding of serum 1b to linear peptides of protein M of SARS-CoV Urbani: 0.5
  Binding of serum 1b to looped/cyclic peptides of protein M of SARS-CoV Urbani: 0.6
  Binding of serum 2 to linear peptides of protein M of SARS-CoV Urbani: 0.7
  Binding of serum 2 to looped/cyclic peptides of protein M of SARS-CoV Urbani: 0.5
  Binding of serum 6 to linear peptides of protein M of SARS-CoV Urbani: 0.3
  Binding of serum 6 to looped/cyclic peptides of protein M of SARS-CoV Urbani: 0.4
  Binding of serum 37 to linear peptides of protein M of SARS-CoV Urbani: 0.9
  Binding of serum 37 to looped/cyclic peptides of protein M of SARS-CoV Urbani: 0.6
  Binding of serum 62 to linear peptides of protein M of SARS-CoV Urbani: 0.8
  Binding of serum 62 to looped/cyclic peptides of protein M of SARS-CoV Urbani: 0.6
  Binding of serum London to linear peptides of protein M of SARS-CoV Urbani: 0.3
  Binding of serum London to looped/cyclic peptides of protein M of SARS-CoV Urbani: 0.2
  Binding of serum SARS-green to linear peptides of protein M of SARS-CoV Urbani: 0.3
  Binding of serum SARS-green to looped/cyclic peptides of protein M of SARS-CoV Urbani: 0.3
  Binding of serum SARS-yellow to linear peptides of protein M of SARS-CoV Urbani: 0.1
  Binding of serum SARS-yellow to looped/cyclic peptides of protein M of SARS-CoV Urbani: 0.5
[2]
  Binding of Control Serum Blood-Bank to Looped peptides of the protein M of SARS-CoV Urbani: 0.7
  Binding of Control serum Blood-bank to linear peptides of the protein M of SARS-CoV Urbani: 0.8
  Binding of Control serum LUMC to linear peptides of the protein M of SARS-CoV Urbani: 0.5
  Binding of Control serum LUMC to looped peptides of the protein M of SARS-CoV Urbani: 0.6
[3]
  Rabbit serum linear peptides: 0.4
  Rabbit serum looped peptides: 0.2

## LMWLSYFVASFRLFA
[1]
  Binding of serum 1a to linear peptides of protein M of SARS-CoV Urbani: 0.6
  Binding of serum 1b to linear peptides of protein M of SARS-CoV Urbani: 0.4
  Binding of serum 2 to linear peptides of protein M of SARS-CoV Urbani: 0.4
  Binding of serum 6 to linear peptides of protein M of SARS-CoV Urbani: 0.3
  Binding of serum 37 to linear peptides of protein M of SARS-CoV Urbani: 0.3
  Binding of serum 62 to linear peptides of protein M of SARS-CoV Urbani: 0.4
  Binding of serum London to linear peptides of protein M of SARS-CoV Urbani: 0.3
  Binding of serum SARS-green to linear peptides of protein M of SARS-CoV Urbani: 0.5
  Binding of serum SARS-yellow to linear peptides of protein M of SARS-CoV Urbani: 0.1
  Recognition of the peptide by sera of SARS-CoV infected individuals, and form (linear, looped/cyclic) in which it is recognized: recognized in looped/cyclic form
[2]
  Binding of Control Serum Blood-Bank to Looped peptides of the protein M of SARS-CoV Urbani: 0.6
  Binding of Control serum Blood-bank to linear peptides of the protein M of SARS-CoV Urbani: 0.5
  Binding of Control serum LUMC to linear peptides of the protein M of SARS-CoV Urbani: 0.4
  Binding of Control serum LUMC to looped peptides of the protein M of SARS-CoV Urbani: 0.6
[3]
  Rabbit serum linear peptides: 0.0
  Rabbit serum looped peptides: 0.3
